The target in assay [1] is T1, bradykinin 1 receptor (B1R) of the rat (Rattus norvegicus, UniProt P97583).
T1 construct: expressed in transfected cells; host or cells: CHO K1 cells
T1 sequence (P97583 1-337): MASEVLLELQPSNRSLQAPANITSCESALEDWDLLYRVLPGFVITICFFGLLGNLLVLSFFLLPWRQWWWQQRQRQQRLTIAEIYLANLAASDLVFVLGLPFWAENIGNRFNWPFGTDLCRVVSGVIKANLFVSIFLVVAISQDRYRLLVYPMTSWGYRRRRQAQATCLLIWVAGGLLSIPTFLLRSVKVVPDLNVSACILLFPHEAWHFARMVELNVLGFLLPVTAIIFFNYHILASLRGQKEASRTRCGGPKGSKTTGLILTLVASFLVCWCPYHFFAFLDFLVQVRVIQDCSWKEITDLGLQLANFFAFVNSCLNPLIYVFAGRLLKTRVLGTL
In words: Functional investigation on the rat bradykinin 1 receptor (B1R), Ca2+ FLIPR assay in CHO K1 rB1R cells. The assay is classed as cell-based. Summed up: (§1)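 Stably transfected CHO K1 cells loaded with Fluo-4; FLIPR Ca2+ fluorescence peak (ex 488/em 540 nm). Compound added first (agonism vs Lys-Des-Arg9-bradykinin ≥50 nM human, Des-Arg9-bradykinin 10 μM rat), then after 10-20 min agonist at EC80; antagonism as % inhibition, IC50 from concentration series, n=2-3, N≥2.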

For assay [2], the target named is T2, human bradykinin 1 receptor (B1R) (Homo sapiens, UniProt P46663).
T2 construct: expressed in transfected cells; host or cells: CHO K1 cells
T2 sequence (P46663 1-353): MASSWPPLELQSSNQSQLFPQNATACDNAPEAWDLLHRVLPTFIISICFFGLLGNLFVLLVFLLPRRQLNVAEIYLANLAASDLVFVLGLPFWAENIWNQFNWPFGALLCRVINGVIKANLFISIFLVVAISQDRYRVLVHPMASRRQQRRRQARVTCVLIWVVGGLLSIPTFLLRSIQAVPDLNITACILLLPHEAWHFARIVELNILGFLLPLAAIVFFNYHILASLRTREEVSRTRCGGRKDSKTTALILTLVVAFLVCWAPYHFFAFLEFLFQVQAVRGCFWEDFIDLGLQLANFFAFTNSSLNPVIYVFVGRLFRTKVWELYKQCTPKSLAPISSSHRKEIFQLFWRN
In words: Functional investigation on the human bradykinin 1 receptor (B1R), Ca2+ FLIPR assay in CHO K1 hB1R cells. The assay is classed as cell-based. Summed up:
as §1

[3] abbreviates: CHO-K1, B1R antagonism rat, test substance 10 μM, Ca2+ FLIPR, CHO K1 rB1R cells, read-out: B1R Ant. r [10 μM] % Inhibition.
The mark [4] stands for this setting: CHO-K1, B1R antagonism human, test substance 10 μM, Ca2+ FLIPR, CHO K1 hB1R cells, read-out: B1R Ant. h [10 μM] % Inhibition.

As a reminder, the inhibition is the drop in the measured response relative to a control, in per cent.

Like-named read-outs stand apart in the source and are kept apart here.

As to `COc1cc(C)c(S(=O)(=O)N2CCC(OCC(=O)NCCC3CCC(C(c4cccs4)N(C)C)CC3)C2)c(C)c1C` (stereo not drawn) [Example 74, N-(2-(4-((dimethylamino)(thiophen-2-yl)methyl)cyclohexyl)ethyl)-2-(1-(4-methoxy-2,3,6-trimethylphenylsulfonyl)pyrrolidin-3-yloxy)acetamide], the figures for the inhibition at 10 µM in assay [1] (setting [3]) and in assay [2] (setting [4]) were 27% and 66%, respectively.

`COc1ccc(S(=O)(=O)N2CCCCC2COCC(=O)NCC2CCC(C(c3cccs3)N(C)C)CC2)cc1` (stereo not drawn) [Example 45, N-((4-((dimethylamino)(thiophen-2-yl)methyl)cyclohexyl)methyl)-2-((1-(4-methoxyphenylsulfonyl)piperidin-2-yl)methoxy)acetamide]: the inhibition at 10 µM is 65% in assay [1] (setting [3]) and 70% in assay [2] (setting [4]).

`COc1cc(C)c(S(=O)(=O)N2CCC(OCC(=O)NCC3CCC(C(c4cccs4)N(C)C)CC3)C2)c(C)c1` (stereo not drawn) [Example 86, N-((4-((dimethylamino)(thiophen-2-yl)methyl)cyclohexyl)methyl)-2-(1-(4-methoxy-2,6-dimethylphenylsulfonyl)pyrrolidin-3-yloxy)acetamide]: the values for the inhibition at 10 µM in assay [1] (setting [3]) and in assay [2] (setting [4]) were 100% and 98%, respectively.

Consider `COc1ccc(S(=O)(=O)N2CCCCC2COCC(=O)NCC2CCC(C(c3ccccc3)N(C)C)CC2)cc1` (stereo not drawn) [Example 88, N-((4-((dimethylamino)(phenyl)methyl)cyclohexyl)methyl)-2-((1-(4-methoxyphenylsulfonyl)piperidin-2-yl)methoxy)acetamide], for which the inhibition at 10 µM stood at 68% in assay [1] (setting [3]) and 80% in assay [2] (setting [4]).

Regarding `COc1cc(C)c(S(=O)(=O)N2CCC(OCC(=O)NC3CCC(C(c4cccs4)N(C)C)CC3)CC2)c(C)c1C` (stereo not drawn) [Example 1, N-(4-((dimethylamino)(thiophen-2-yl)methyl)cyclohexyl)-2-(1-(4-methoxy-2,3,6-trimethylphenylsulfonyl)piperidin-4-yloxy)acetamide], the inhibition at 10 µM was -5% in assay [1] (setting [3]) and 46% in assay [2] (setting [4]).

As for `COc1cc(C)c(S(=O)(=O)N(C)CCOCC(=O)NCC2CCC(C(c3cccs3)N(C)C)CC2)c(C)c1` (stereo not drawn) [Example 69, N-((4-((dimethylamino)(thiophen-2-yl)methyl)cyclohexyl)methyl)-2-(2-(4-methoxy-N,2,6-trimethylphenylsulfonamido)ethoxy)acetamide], the inhibition at 10 µM in assay [1] (setting [3]) was determined as 100%; in assay [2] (setting [4]) it was 104%.

For the molecule `COc1cc(C)c(S(=O)(=O)N(C)CCOCC(=O)NCC2CCC(C(c3cccs3)N(C)C)CC2)c(C)c1C` (stereo not drawn) [Example 35, N-((4-((dimethylamino)(thiophen-2-yl)methyl)cyclohexyl)methyl)-2-(2-(4-methoxy-N,2,3,6-tetramethylphenylsulfonamido)ethoxy)acetamide], the results for the inhibition at 10 µM in assay [1] (setting [3]) and in assay [2] (setting [4]) were 0% and 50%, respectively.

With `CN(C)C(c1cccs1)C1CCC(CCNC(=O)COCCN(C)S(=O)(=O)c2ccc(Cl)cc2)CC1` (stereo not drawn) [Example 37, 2-(2-(4-chloro-N-methylphenylsulfonamido)ethoxy)-N-(2-(4-((dimethylamino)(thiophen-2-yl)methyl)cyclohexyl)ethyl)acetamide], the inhibition at 10 µM was found to be 21% in assay [1] (setting [3]) and 40% in assay [2] (setting [4]).

Regarding `CN(C)C(c1ccccc1)C1CCC(CNC(=O)COCCN(C)S(=O)(=O)c2cccc(C(F)(F)F)c2)CC1` (stereo not drawn) [Example 91, N-((4-((dimethylamino)(phenyl)methyl)cyclohexyl)methyl)-2-(2-(N-methyl-3-(trifluoromethyl)phenylsulfonamido)ethoxy)acetamide], the inhibition at 10 µM in assay [1] (setting [3]) stood at 34%; in assay [2] (setting [4]), 42%.

As for `COc1ccc(S(=O)(=O)N2CCCCC2CCOCC(=O)NCCC2CCC(C(c3cccs3)N(C)C)CC2)cc1` (stereo not drawn) [Example 46, N-(2-(4-((dimethylamino)(thiophen-2-yl)methyl)cyclohexyl)ethyl)-2-(2-(1-(4-methoxyphenylsulfonyl)piperidin-2-yl)ethoxy)acetamide], the inhibition at 10 µM came out at 77% in assay [1] (setting [3]) and 86% in assay [2] (setting [4]).

Consider `COc1cc(C)c(S(=O)(=O)N2CCN(CCOCC(=O)NCC3CCC(C(c4ccccc4)N(C)C)CC3)CC2)c(C)c1C` (stereo not drawn) [Example 61, N-((4-((dimethylamino)(phenyl)methyl)cyclohexyl)methyl)-2-(2-(4-(4-methoxy-2,3,6-trimethylphenylsulfonyl)piperazin-1-yl)ethoxy)acetamide], for which the inhibition at 10 µM in assay [1] (setting [3]) came to 25%; in assay [2] (setting [4]), 63%.

In the case of `CCN(CCOCC(=O)NC1CCC(C(c2cccs2)N(C)C)CC1)S(=O)(=O)c1c(C)cc(OC)c(C)c1C` (stereo not drawn) [Example 59, N-(4-((dimethylamino)(thiophen-2-yl)methyl)cyclohexyl)-2-(2-(N-ethyl-4-methoxy-2,3,6-trimethylphenylsulfonamido)ethoxy)acetamide], the values for the inhibition at 10 µM in assay [1] (setting [3]) and in assay [2] (setting [4]) were 70% and 56%, respectively.

As for `Cc1cc(C)c(S(=O)(=O)N2CCC(OCC(=O)NCCC3CCC(C(c4cccs4)N(C)C)CC3)C2)c(C)c1` (stereo not drawn) [Example 71, N-(2-(4-((dimethylamino)(thiophen-2-yl)methyl)cyclohexyl)ethyl)-2-(1-(mesitylsulfonyl)pyrrolidin-3-yloxy)acetamide], the inhibition at 10 µM in assay [1] (setting [3]) amounted to 54%; in assay [2] (setting [4]), 84%.

As to `CN(C)C(c1cccc(F)c1)C1CCC(CNC(=O)COCCN(C)S(=O)(=O)c2ccc(Cl)cc2Cl)CC1` (stereo not drawn) [Example 70, 2-(2-(2,4-dichloro-N-methylphenylsulfonamido)ethoxy)-N-((4-((dimethylamino)(3-fluorophenyl)methyl)cyclohexyl)methyl)acetamide], the values for the inhibition at 10 µM in assay [1] (setting [3]) and in assay [2] (setting [4]) were 31% and 98%, respectively.

On to `CN(C)C(c1ccccc1)C1CCC(CNC(=O)COC2CCCCC2N(C)S(=O)(=O)c2ccc(Cl)c(Cl)c2)CC1` (stereo not drawn) [Example 78, 2-(2-(3,4-dichloro-N-methylphenylsulfonamido)cyclohexyloxy)-N-((4-((dimethylamino)(phenyl)methyl)cyclohexyl)methyl)acetamide], for which the inhibition at 10 µM in assay [1] (setting [3]) stood at 2%; in assay [2] (setting [4]) it was 51%.

On to `CN(C)C(c1cccc(F)c1)C1CCC(CNC(=O)COCC2CCCCN2S(=O)(=O)c2ccc(Cl)c(Cl)c2)CC1` (stereo not drawn) [Example 87, 2-((1-(3,4-dichlorophenylsulfonyl)piperidin-2-yl)methoxy)-N-((4-((dimethylamino)(3-fluorophenyl)methyl)cyclohexyl)methyl)acetamide], for which the inhibition at 10 µM in assay [1] (setting [3]) stood at 9%; in assay [2] (setting [4]), 57%.

As for `COc1ccc(S(=O)(=O)N2Cc3ccccc3CC2COCC(=O)NCCC2CCC(C(c3cccs3)N(C)C)CC2)cc1` (stereo not drawn) [Example 48, N-(2-(4-((dimethylamino)(thiophen-2-yl)methyl)cyclohexyl)ethyl)-2-((2-(4-methoxyphenylsulfonyl)-1,2,3,4-tetrahydroisoquinolin-3-yl)methoxy)acetamide], the inhibition at 10 µM was found to be 22% in assay [1] (setting [3]) and 33% in assay [2] (setting [4]).

As for `COc1ccc(S(=O)(=O)N2CCCC2COCC(=O)NCCC2CCC(C(c3cccs3)N(C)C)CC2)cc1` (stereo not drawn) [Example 77, N-(2-(4-((dimethylamino)(thiophen-2-yl)methyl)cyclohexyl)ethyl)-2-((1-(4-methoxyphenylsulfonyl)pyrrolidin-2-yl)methoxy)acetamide], the figures for the inhibition at 10 µM in assay [1] (setting [3]) and in assay [2] (setting [4]) were 44% and 41%, respectively.

For `CN(C)C(c1ccccc1)C1CCC(NC(=O)COCCN(C)S(=O)(=O)c2c(Cl)cc(Cl)cc2Cl)CC1` (stereo not drawn) [Example 34, N-(4-((dimethylamino)(phenyl)methyl)cyclohexyl)-2-(2-(2,4,6-trichloro-N-methylphenylsulfonamido)ethoxy)acetamide], the inhibition at 10 µM in assay [1] (setting [3]) was found to be 24%; in assay [2] (setting [4]), 102%.

`CN(C)C(c1ccccc1)C1CCC(CNC(=O)COC2CCN(S(=O)(=O)c3ccc(Cl)cc3Cl)C2)CC1` (stereo not drawn) [Example 67, 2-(1-(2,4-dichlorophenylsulfonyl)pyrrolidin-3-yloxy)-N-((4-((dimethylamino)(phenyl)methyl)cyclohexyl)methyl)acetamide]: the inhibition at 10 µM in assay [1] (CHO-K1, read-out: B1R Ant. r [10 μM] % Inhibition) turned out to be 46%; in assay [2] (CHO-K1, read-out: B1R Ant. h [10 μM] % Inhibition) it was 48%.

`COc1ccc(S(=O)(=O)N2CCCCC2CCOCC(=O)NCC2CCC(C(c3ccccc3)N(C)C)CC2)cc1` (stereo not drawn) [Example 89, N-((4-((dimethylamino)(phenyl)methyl)cyclohexyl)methyl)-2-(2-(1-(4-methoxyphenylsulfonyl)piperidin-2-yl)ethoxy)acetamide]: the figures for the inhibition at 10 µM in assay [1] (setting [3]) and in assay [2] (setting [4]) were 50% and 42%, respectively.

These data come from patent US8106055B2, “Substituted amide compounds” (Gruenenthal GmbH, priority 2007, dated 2012).
